# Laboratory results reported in patent US20230167073A1 (Teijin Pharma Limited, priority 2020, published 2023).
# Target: T1, Human TRPC6 (Homo sapiens, UniProt Q9Y210)
# T1 construct: expressed in transfected cells
# T1 sequence (Q9Y210 1-931): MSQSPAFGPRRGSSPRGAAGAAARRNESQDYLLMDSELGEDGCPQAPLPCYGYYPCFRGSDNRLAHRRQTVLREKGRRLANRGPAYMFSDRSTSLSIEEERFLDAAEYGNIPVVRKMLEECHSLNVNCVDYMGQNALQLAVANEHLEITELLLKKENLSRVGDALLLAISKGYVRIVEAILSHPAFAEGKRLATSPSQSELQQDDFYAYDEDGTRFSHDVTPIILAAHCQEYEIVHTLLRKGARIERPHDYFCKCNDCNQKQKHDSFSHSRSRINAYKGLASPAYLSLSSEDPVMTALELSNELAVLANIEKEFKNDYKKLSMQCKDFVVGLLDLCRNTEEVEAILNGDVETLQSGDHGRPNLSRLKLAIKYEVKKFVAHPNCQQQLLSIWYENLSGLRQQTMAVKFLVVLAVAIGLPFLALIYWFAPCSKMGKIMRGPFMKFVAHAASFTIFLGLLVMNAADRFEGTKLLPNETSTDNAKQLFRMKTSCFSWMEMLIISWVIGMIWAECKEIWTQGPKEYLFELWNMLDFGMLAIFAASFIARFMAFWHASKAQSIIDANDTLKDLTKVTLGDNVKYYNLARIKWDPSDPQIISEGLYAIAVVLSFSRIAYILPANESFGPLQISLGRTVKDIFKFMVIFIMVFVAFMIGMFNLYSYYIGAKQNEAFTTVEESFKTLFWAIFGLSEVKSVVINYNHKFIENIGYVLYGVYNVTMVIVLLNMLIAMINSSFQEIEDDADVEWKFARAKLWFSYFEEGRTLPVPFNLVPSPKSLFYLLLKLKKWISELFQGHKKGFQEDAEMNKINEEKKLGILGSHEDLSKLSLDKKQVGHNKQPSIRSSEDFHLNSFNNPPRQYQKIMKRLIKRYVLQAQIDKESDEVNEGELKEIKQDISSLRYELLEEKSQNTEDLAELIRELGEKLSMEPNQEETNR
# Test: Evaluation of TRPC6 channel inhibitory activity (1), FLIPR Calcium 5 Assay Kit, OAG stimulation (Compound Nos. 1-1293)
# Type: cell-based
# Details: Human TRPC6 stably-expressing cells, OAG 30 μM, FLIPR Calcium 5 Assay Kit; read-out: Inhibitory activity (pIC50 class) (converted)
# In short: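 TRPC6 (human) stable cells, 24 h culture; Ca5 no-wash dye + probenecid 30 min; cpd 20 min; OAG 30 μM final; ΔF (pre-cpd min to post-OAG max); 0%/100% = no cpd / no cpd + no OAG; 4PL → pIC50, binned +/++/+++.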
row,Compound,IC50 [nM]
1,"N#Cc1ccc(-n2ccc(C(O)CN)n2)c(Oc2cnnc(-c3ccc[nH]3)c2)c1 (stereo not drawn) [Compound 196, 4-[3-(2-amino-1-hydroxyethyl)pyrazol-1-yl]-3-[6-(1H-pyrrol-2-yl)pyridazin-4-yl]oxybenzonitrile]",10 to 1000
2,"NCCc1cnc(-c2ccc(Cl)cc2Oc2cnn(CC(F)(F)F)c2)nc1 [compound 1023, 2-[2-[4-chloro-2-[1-(2,2,2-trifluoroethyl)pyrazol-4-yl]oxyphenyl]pyrimidin-5-yl]ethanamine]",10 to 1000
3,"N#Cc1ccc(-c2ccc(C(O)CN)cc2)c(Sc2cnnc(N3CCOCC3)c2)c1 (stereo not drawn) [compound 1238, 4-[4-(2-amino-1-hydroxyethyl)phenyl]-3-(6-morpholin-4-ylpyridazin-4-yl)sulfanylbenzonitrile]",> 1000
4,"Cn1nc(C2CC2)cc1Oc1cc(C#N)ccc1-c1cc(C(=O)N2CCC(N)CC2)ccn1 [compound 553, 4-[4-(4-aminopiperidine-1-carbonyl)pyridin-2-yl]-3-(5-cyclopropyl-2-methylpyrazol-3-yl)oxybenzonitrile]",> 1000
5,"Cn1nc(C2CC2)cc1Oc1cc(F)ccc1-c1ncc(CCN)cn1 [compound 1017, 2-[2-[2-(5-cyclopropyl-2-methylpyrazol-3-yl)oxy-4-fluorophenyl]pyrimidin-5-yl]ethanamine]",< 10
6,"N#Cc1ccc(-c2ccc(CCN)cc2)c(Oc2cnnc(N3CCCC3)c2)c1 [Compound 65, 4-[4-(2-aminoethyl)phenyl]-3-(6-pyrrolidin-1-ylpyridazin-4-yl)oxybenzonitrile]",< 10
7,"N#Cc1ccc(-c2ccc(CCN)cc2)c(Oc2cnnc(-c3ccccc3C#N)c2)c1 [Compound 93, 4-[4-(2-aminoethyl)phenyl]-3-[6-(2-cyanophenyl)pyridazin-4-yl]oxybenzonitrile]",< 10
8,"CCN(CC)c1cc(Oc2cc(C#N)ccc2-c2ccc(CCN)cn2)n(C)n1 [compound 754, 4-[5-(2-aminoethyl)pyridin-2-yl]-3-[5-(diethylamino)-2-methylpyrazol-3-yl]oxybenzonitrile]",< 10
9,"Cc1nc(Oc2cc(C#N)ccc2-c2ccc(C(C)CN)cc2)cc(N2CCOCC2)n1 (stereo not drawn) [Compound 62, 4-[4-(1-aminopropan-2-yl)phenyl]-3-(2-methyl-6-morpholin-4-ylpyrimidin-4-yl)oxybenzonitrile]",< 10
10,"Cc1nc(Oc2cc(C#N)ccc2-c2ccc(CC3(N)COC3)cn2)cc(N2CCC(F)CC2)n1 [compound 667, 4-[5-[(3-aminooxetan-3-yl)methyl]pyridin-2-yl]-3-[6-(4-fluoropiperidin-1-yl)-2-methylpyrimidin-4-yl]oxybenzonitrile]",10 to 1000
11,"N#Cc1ccc(-c2ncc(CN)cn2)c(Sc2cnnc(N3CCCC3)c2)c1 [compound 1265, 4-[5-(aminomethyl)pyrimidin-2-yl]-3-(6-pyrrolidin-1-ylpyridazin-4-yl)sulfanylbenzonitrile]",10 to 1000
12,"Cn1nc(-c2ccccc2)cc1Oc1cc(C#N)ccc1-n1cc(N2CCNCCC2=O)cn1 [Compound 219, 3-(2-Methyl-5-phenylpyrazol-3-yl)oxy-4-[4-(7-oxo-1,4-diazepan-1-yl)pyrazol-1-yl]benzonitrile]",10 to 1000
13,"N#Cc1ccc(-c2ccc(CCN)cc2)c(C(=O)c2nnc(N3CCOCC3)s2)c1 [compound 1088, 4-[4-(2-aminoethyl)phenyl]-3-(5-morpholin-4-yl-1,3,4-thiadiazole-2-carbonyl)benzonitrile]",10 to 1000
14,"Cc1nc(Oc2cc(C#N)ccc2-c2ncc(CCN)cn2)cc(N2CCCCC2)n1 [compound 447, 4-[5-(2-aminoethyl)pyrimidin-2-yl]-3-(2-methyl-6-piperidin-1-ylpyrimidin-4-yl)oxybenzonitrile]",< 10
15,"Cn1nc(-c2ccnn2C)cc1Oc1cc(C#N)ccc1-c1ncc(CN)cn1 [compound 945, 4-[5-(aminomethyl)pyrimidin-2-yl]-3-[2-methyl-5-(2-methylpyrazol-3-yl)pyrazol-3-yl]oxybenzonitrile]",< 10
16,"Cn1nc(N2CCOCC2)cc1C(=O)c1cc(F)ccc1-c1ncc(CCN)cn1 [compound 1107, [2-[5-(2-aminoethyl)pyrimidin-2-yl]-5-fluorophenyl]-(2-methyl-5-morpholin-4-ylpyrazol-3-yl)methanone]",< 10
17,"Cn1nc(N2CCOCC2)cc1Oc1cc(F)ccc1-c1ccc(CN)cn1 [compound 976, [6-[4-fluoro-2-(2-methyl-5-morpholin-4-ylpyrazo1-3-yl)oxyphenyl]pyridin-3-yl]methanamine]",10 to 1000
18,"Cc1cc(Oc2cc(C#N)ccc2-c2ccc([C@H](O)CN)cn2)cc(N2CC(F)C2)n1 [compound 502, 4-[5-[(1S)-2-amino-1-hydroxyethyl]pyridin-2-yl]-3-[2-(3-fluoroazetidin-1-yl)-6-methylpyridin-4-yl]oxybenzonitrile]",< 10
19,"Cn1nc(-c2ccccn2)cc1Oc1nc(C#N)ccc1-c1ncc(CN)cn1 [compound 1283, 5-[5-(aminomethyl)pyrimidin-2-yl]-6-(2-methyl-5-pyridin-2-ylpyrazol-3-yl)oxypyridine-2-carbonitrile]",> 1000
20,"Cc1cc(Oc2cc(C#N)ccc2-n2cc(CCN)cn2)n(C)n1 [compound 304, 4-[4-(2-aminoethyl)pyrazol-1-yl]-3-(2,5-dimethylpyrazol-3-yl)oxybenzonitrile]",> 1000
21,"Cc1nc(OCC(F)(F)F)cc(Oc2cc(C#N)ccc2-c2ncc(CN)cn2)n1 [compound 893, 4-[5-(aminomethyl)pyrimidin-2-yl]-3-[2-methyl-6-(2,2,2-trifluoroethoxy)pyrimidin-4-yl]oxybenzonitrile]",> 1000
22,"Cc1nc(Nc2cc(C#N)ccc2-c2ccc3c(c2)COC32CNC2)cc(N2CCOCC2)n1 [Compound 3, 3-[(2-methyl-6-morpholin-4-ylpyrimidin-4-yl)amino]-4-spiro[3H-2-benzofuran-1,3′-azetidin]-5-ylbenzonitrile]",10 to 1000
23,"Cc1cc(Oc2cc(C#N)ccc2-c2ccc(C(C)(C)N)cn2)cc(N2CCOCC2)n1 [compound 397, 4-[5-(2-aminopropan-2-yl)pyridin-2-yl]-3-(2-methyl-6-morpholin-4-ylpyridin-4-yl)oxybenzonitrile]",10 to 1000
24,"Cc1cc(Oc2cc(C#N)ccc2-c2ccc(N3CC[C@@H](N)C3=O)cn2)cc(N2CCOCC2)n1 [compound 569, 4-[5-[(3R)-3-amino-2-oxopyrrolidin-1-yl]pyridin-2-yl]-3-(2-methyl-6-morpholin-4-ylpyridin-4-yl)oxybenzonitrile]",> 1000
25,"Cc1nn(CC2CC2)cc1C(=O)c1cc(C#N)ccc1-c1ncc(CN)cn1 [compound 1035, 4-[5-(aminomethyl)pyrimidin-2-yl]-3-[1-(cyclopropylmethyl)-3-methylpyrazole-4-carbonyl]benzonitrile]",< 10
26,"CCN(CC)c1cc(Cc2cc(C#N)ccc2-c2ccc(CCN)cn2)n(C)n1 [compound 1208, 4-[5-(2-aminoethyl)pyridin-2-yl]-3-[[5-(diethylamino)-2-methylpyrazol-3-yl]methyl]benzonitrile]",< 10
27,"Cc1nc(Oc2cc(C#N)ccc2-c2ccc(CCN)cc2)cc(C2CCCC2)n1 [Compound 46, 4-[4-(2-aminoethyl)phenyl]-3-(6-cyclopentyl-2-methylpyrimidin-4-yl)oxybenzonitrile]",< 10
